From PubChem BioAssay AID1671292
pIC50: −log10 of the molar value.

Biological target: Homeodomain-interacting protein kinase 1 (Homo sapiens) (UniProt Q86Z02)
Experiment: HIPK1 kinase inhibitors, dose response, biochemical, Z'-LYTE, FRET, protease-coupled, direct format (AID 1671292)
Settings: Z'-LYTE FRET kinase assay, recombinant HIPK1

Homeodomain-interacting protein kinase 1 (Homo sapiens), sequence (Q86Z02 whole entry, looked up): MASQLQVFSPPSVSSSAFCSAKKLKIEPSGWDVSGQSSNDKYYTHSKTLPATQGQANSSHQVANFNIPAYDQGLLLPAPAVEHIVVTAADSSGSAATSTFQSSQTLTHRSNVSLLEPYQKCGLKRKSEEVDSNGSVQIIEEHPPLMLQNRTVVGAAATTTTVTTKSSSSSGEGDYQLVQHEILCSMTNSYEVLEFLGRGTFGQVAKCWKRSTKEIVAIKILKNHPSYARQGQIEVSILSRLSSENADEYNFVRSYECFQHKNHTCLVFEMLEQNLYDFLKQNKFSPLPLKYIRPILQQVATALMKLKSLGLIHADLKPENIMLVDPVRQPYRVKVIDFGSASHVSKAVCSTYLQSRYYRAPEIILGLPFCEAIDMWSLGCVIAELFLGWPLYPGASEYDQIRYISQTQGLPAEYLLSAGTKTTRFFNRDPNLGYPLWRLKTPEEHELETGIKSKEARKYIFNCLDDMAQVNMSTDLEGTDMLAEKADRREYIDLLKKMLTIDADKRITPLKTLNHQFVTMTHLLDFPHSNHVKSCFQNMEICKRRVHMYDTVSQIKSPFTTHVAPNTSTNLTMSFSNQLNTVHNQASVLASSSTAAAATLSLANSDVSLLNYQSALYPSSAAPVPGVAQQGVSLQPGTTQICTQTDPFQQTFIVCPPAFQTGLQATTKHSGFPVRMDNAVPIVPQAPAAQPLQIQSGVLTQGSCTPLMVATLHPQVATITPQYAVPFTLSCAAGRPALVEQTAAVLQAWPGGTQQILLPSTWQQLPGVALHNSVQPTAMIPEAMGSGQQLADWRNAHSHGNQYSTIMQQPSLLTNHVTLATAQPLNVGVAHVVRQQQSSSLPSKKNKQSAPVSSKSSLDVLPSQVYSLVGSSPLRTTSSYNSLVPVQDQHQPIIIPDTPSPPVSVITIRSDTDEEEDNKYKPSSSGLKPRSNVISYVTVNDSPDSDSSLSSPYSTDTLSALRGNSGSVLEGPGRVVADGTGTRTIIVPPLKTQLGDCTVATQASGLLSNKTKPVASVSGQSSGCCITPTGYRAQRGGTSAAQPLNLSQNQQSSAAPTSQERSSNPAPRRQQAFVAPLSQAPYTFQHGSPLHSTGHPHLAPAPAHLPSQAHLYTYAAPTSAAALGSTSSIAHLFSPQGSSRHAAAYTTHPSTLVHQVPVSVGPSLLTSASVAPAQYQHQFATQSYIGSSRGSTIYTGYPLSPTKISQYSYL

Brc1c(Br)c(Br)c2n[nH]nc2c1Br
pIC50: 5.35
